{
  "source": "patent US20250282827A1",
  "about": "“LIPIDATED POLYMYXIN ANALOGUES” (priority 2021, published 2025)",
  "key": {"E. coli ATCC MS8345": {"tested_on": "E. coli ATCC MS8345", "assay_type": "cell-based, Escherichia coli", "excerpt": "(§1) All 81 compounds prepared in Examples 2 and 3 underwent screening against a panel of Gram-negative bacterium to assess their ability to inhibit bacterial growth. […] The median value is presented.\nExpansion of the polymyxin macrocycle by substituting […]) offered little advantage in antimicrobial activity but was generally well tolerated although for A. baumanni and P. aeruginosa this was detrimental."}, "E. coli ATCC 25922": {"tested_on": "E. coli ATCC 25922", "assay_type": "cell-based, Escherichia coli", "excerpt": "as §1"}, "A. baumannii ATCC 19606": {"tested_on": "A. baumannii ATCC 19606", "assay_type": "cell-based, Acinetobacter baumannii", "excerpt": "as §1"}, "[1]": {"tested_on": "K. pneumoniae ATCC 700603", "assay_type": "cell-based, Klebsiella pneumoniae", "excerpt": "as §1"}, "[2]": {"tested_on": "K. pneumoniae ATCC MS6671", "assay_type": "cell-based, Klebsiella pneumoniae", "excerpt": "as §1"}, "K. pneumoniae ATCC 33495": {"tested_on": "K. pneumoniae ATCC 33495", "assay_type": "cell-based, Klebsiella pneumoniae", "excerpt": "as §1"}, "P. aeruginosa ATCC 27853": {"tested_on": "P. aeruginosa ATCC 27853", "assay_type": "cell-based, Pseudomonas aeruginosa", "excerpt": "as §1"}},
  "note": "Like-named read-outs stand apart in the source and are kept apart here. Positions of bridges follow the written chain, without caps; N, C: chain ends. Non-standard residues stand in square brackets, D forms with d. Residues, ends and D or L forms follow the SMILES beside them. *: point of attachment. CH2CH2OBz(4-tBu) = CC(C)(C)c1ccc(C(=O)OCC*)cc1; Ethyl(2-propionyloxy) = CCC(=O)OCC*; Ethyl(2-OPiv) = CC(C)(C)C(=O)OCC*; Ethyl(2-OBz) = O=C(OCC*)c1ccccc1; hCys = N[C@@H](CCS)C(=O)O; Octanoyl = CCCCCCCC(=O)*; Dab = NCC[C@H](N)C(=O)O; X9 = CC(C)CC(=O)OCC*",
  "data": [
    {"smiles": "CCC(=O)OCCSCC[C@H](N)C(=O)N[C@@H](CCN)C(=O)N[C@H](C(=O)N[C@@H](CCN)C(=O)N[C@H]1CCNC(=O)[C@H]([C@@H](C)O)NC(=O)[C@H](CCN)NC(=O)[C@H](CCN)NC(=O)[C@H](CC(C)C)NC(=O)[C@@H](Cc2ccccc2)NC(=O)[C@H](CCN)NC1=O)[C@@H](C)O", "note": "[Compound 60] (H-[hCys](Ethyl(2-propionyloxy))[Dab]T[Dab][Dab][Dab][dF]L[Dab][Dab]T; lactam 5-C)", "values": [
      {"measurement": "MIC E. coli ATCC MS8345", "setting": "E. coli ATCC MS8345; ATCC MS8345", "value": 16, "unit": "µg/mL"},
      {"measurement": "MIC E. coli ATCC 25922", "setting": "E. coli ATCC 25922; ATCC 25922", "value": 0.25, "unit": "µg/mL"},
      {"measurement": "MIC A. baumannii ATCC 19606", "setting": "A. baumannii ATCC 19606; ATCC 19606", "value": 2, "unit": "µg/mL"},
      {"measurement": "MIC K. pneumoniae ATCC 700603", "setting": "[1]; ATCC 700603", "value": "0.25 to 0.5", "unit": "µg/mL"},
      {"measurement": "MIC K. pneumoniae ATCC MS6671", "setting": "[2]; ATCC MS6671", "value": ">32", "unit": "µg/mL"},
      {"measurement": "MIC K. pneumoniae ATCC 33495", "setting": "K. pneumoniae ATCC 33495; ATCC 33495", "value": 0.25, "unit": "µg/mL"},
      {"measurement": "MIC P. aeruginosa ATCC 27853", "setting": "P. aeruginosa ATCC 27853; ATCC 27853", "value": 0.5, "unit": "µg/mL"}
    ]},
    {"smiles": "CCCCCCCC(=O)N[C@@H](CSCCOC(=O)c1ccccc1)C(=O)N[C@@H](CCN)C(=O)N[C@H](C(=O)N[C@@H](CCN)C(=O)N[C@H]1CCNC(=O)[C@H]([C@@H](C)O)NC(=O)[C@H](CCN)NC(=O)[C@H](CCN)NC(=O)[C@H](CSCCOC(=O)c2ccccc2)NC(=O)[C@@H](Cc2ccccc2)NC(=O)[C@H](CCN)NC1=O)[C@@H](C)O", "note": "[Compound 51] (Octanoyl-C(Ethyl(2-OBz))[Dab]T[Dab][Dab][Dab][dF]C(Ethyl(2-OBz))[Dab][Dab]T; lactam 5-C)", "values": [
      {"measurement": "MIC E. coli ATCC MS8345", "setting": "E. coli ATCC MS8345; colistin-resistant strain, median of triplicate", "value": "2 to 4", "unit": "µg/mL"},
      {"measurement": "MIC E. coli ATCC 25922", "setting": "E. coli ATCC 25922; median of triplicate", "value": 2, "unit": "µg/mL"},
      {"measurement": "MIC A. baumannii ATCC 19606", "setting": "A. baumannii ATCC 19606; median of triplicate", "value": "1 to 2", "unit": "µg/mL"},
      {"measurement": "MIC K. pneumoniae ATCC 700603", "setting": "[1]; median of triplicate", "value": "2 to 4", "unit": "µg/mL"},
      {"measurement": "MIC K. pneumoniae ATCC MS6671", "setting": "[2]; median of triplicate", "value": ">32", "unit": "µg/mL"},
      {"measurement": "MIC K. pneumoniae ATCC 33495", "setting": "K. pneumoniae ATCC 33495; median of triplicate", "value": 2, "unit": "µg/mL"},
      {"measurement": "MIC P. aeruginosa ATCC 27853", "setting": "P. aeruginosa ATCC 27853; median of triplicate", "value": 2, "unit": "µg/mL"}
    ]},
    {"smiles": "CC(C)C[C@@H]1NC(=O)[C@@H](Cc2ccccc2)NC(=O)[C@H](CCN)NC(=O)[C@@H](NC(=O)[C@H](CCN)NC(=O)[C@@H](NC(=O)[C@H](CCN)NC(=O)[C@@H](N)CSCCOC(=O)c2ccc(C(C)(C)C)cc2)[C@@H](C)O)CCCCNC(=O)[C@H]([C@@H](C)O)NC(=O)[C@H](CCN)NC(=O)[C@H](CCN)NC1=O", "note": "[Compound 28] (H-C(CH2CH2OBz(4-tBu))[Dab]T[Dab]K[Dab][dF]L[Dab][Dab]T; lactam 5-C)", "values": [
      {"measurement": "MIC E. coli ATCC MS8345", "setting": "E. coli ATCC MS8345; ATCC MS8345", "value": 32, "unit": "µg/mL"},
      {"measurement": "MIC E. coli ATCC 25922", "setting": "E. coli ATCC 25922; ATCC 25922", "value": 2, "unit": "µg/mL"},
      {"measurement": "MIC A. baumannii ATCC 19606", "setting": "A. baumannii ATCC 19606; ATCC 19606", "value": 4, "unit": "µg/mL"},
      {"measurement": "MIC K. pneumoniae ATCC 700603", "setting": "[1]; ATCC 700603", "value": 4, "unit": "µg/mL"},
      {"measurement": "MIC K. pneumoniae ATCC MS6671", "setting": "[2]; ATCC MS6671", "value": ">32", "unit": "µg/mL"},
      {"measurement": "MIC K. pneumoniae ATCC 33495", "setting": "K. pneumoniae ATCC 33495; ATCC 33495", "value": 0.5, "unit": "µg/mL"},
      {"measurement": "MIC P. aeruginosa ATCC 27853", "setting": "P. aeruginosa ATCC 27853; ATCC 27853", "value": 1, "unit": "µg/mL"}
    ]},
    {"smiles": "CC(C)C[C@@H]1NC(=O)[C@@H](Cc2ccccc2)NC(=O)[C@H](CCN)NC(=O)[C@@H](NC(=O)[C@H](CCN)NC(=O)[C@@H](NC(=O)[C@H](N)CSCCOC(=O)C(C)(C)C)[C@@H](C)O)CCNC(=O)[C@H]([C@@H](C)O)NC(=O)[C@H](CCN)NC(=O)[C@H](CCN)NC1=O", "note": "[Compound 93] (H-[dC](Ethyl(2-OPiv))T[Dab][Dab][Dab][dF]L[Dab][Dab]T; lactam 4-C)", "values": [
      {"measurement": "MIC E. coli ATCC MS8345", "setting": "E. coli ATCC MS8345; ATCC MS8345", "value": 32, "unit": "µg/mL"},
      {"measurement": "MIC E. coli ATCC 25922", "setting": "E. coli ATCC 25922; ATCC 25922", "value": 1, "unit": "µg/mL"},
      {"measurement": "MIC A. baumannii ATCC 19606", "setting": "A. baumannii ATCC 19606; ATCC 19606", "value": 4, "unit": "µg/mL"},
      {"measurement": "MIC K. pneumoniae ATCC 700603", "setting": "[1]; ATCC 700603", "value": 2, "unit": "µg/mL"},
      {"measurement": "MIC K. pneumoniae ATCC MS6671", "setting": "[2]; ATCC MS6671", "value": ">32", "unit": "µg/mL"},
      {"measurement": "MIC K. pneumoniae ATCC 33495", "setting": "K. pneumoniae ATCC 33495; ATCC 33495", "value": 1, "unit": "µg/mL"},
      {"measurement": "MIC P. aeruginosa ATCC 27853", "setting": "P. aeruginosa ATCC 27853; ATCC 27853", "value": 2, "unit": "µg/mL"}
    ]},
    {"smiles": "CC(C)CC(=O)OCCSC[C@@H](N)C(=O)N[C@H](C(=O)N[C@@H](CCN)C(=O)N[C@H]1CCNC(=O)[C@H]([C@@H](C)O)NC(=O)[C@H](CCN)NC(=O)[C@H](CCN)NC(=O)[C@H](CC(C)C)NC(=O)[C@@H](Cc2ccccc2)NC(=O)[C@H](CCN)NC1=O)[C@@H](C)O", "note": "[Compound 96] (H-[dC](X9)T[Dab][Dab][Dab][dF]L[Dab][Dab]T; lactam 4-C)", "values": [
      {"measurement": "MIC E. coli ATCC MS8345", "setting": "E. coli ATCC MS8345; ATCC MS8345", "value": 16, "unit": "µg/mL"},
      {"measurement": "MIC E. coli ATCC 25922", "setting": "E. coli ATCC 25922; ATCC 25922", "value": 0.25, "unit": "µg/mL"},
      {"measurement": "MIC A. baumannii ATCC 19606", "setting": "A. baumannii ATCC 19606; ATCC 19606", "value": 4, "unit": "µg/mL"},
      {"measurement": "MIC K. pneumoniae ATCC 700603", "setting": "[1]; ATCC 700603", "value": 1, "unit": "µg/mL"},
      {"measurement": "MIC K. pneumoniae ATCC MS6671", "setting": "[2]; ATCC MS6671", "value": ">32", "unit": "µg/mL"},
      {"measurement": "MIC K. pneumoniae ATCC 33495", "setting": "K. pneumoniae ATCC 33495; ATCC 33495", "value": 1, "unit": "µg/mL"},
      {"measurement": "MIC P. aeruginosa ATCC 27853", "setting": "P. aeruginosa ATCC 27853; ATCC 27853", "value": 1, "unit": "µg/mL"}
    ]}
  ]
}
